Laboratory results reported in EP0046707B1, “Derivatives of 4-aminobutyric acid and the medicines especially active on the central nervous system containing them” (priority 1980, dated 1982).
Where two headings read alike, the source gives them in different places.

Tests used:
[1] = Acute toxicity (mortality over 24 h); settings: in vivo, po, mouse, observed 24 h
Experimental: Les produits à étudier sont administrés par voie orale aux doses de 500 et 1 000 mg/kg à des lots de souris. On observe les souris pendant 24 h et note la mortalité.
Les résultats exprimés en pourcentage de mortalité figurent dans le tableau XI ci-après.

souris [2] = experiment: Potentiation of pentobarbital narcosis (loss of righting reflex); format: in vivo; settings: mouse; for Pourcentage d'animaux en narcose à 500 mg/kg p. os: 500 mg/kg p. os 1 h before pentobarbital 20 mg/kg i.p.; for ED50: po, p. os 1 h before pentobarbital 20 mg/kg i.p., unit not given for DE 50, read-out: dose (p. os) provoquant 50 % d'induction de narcose (DE 50)
Experimental: Les produits à étudier ont été administrés per os chez la souris à la dose de 500 mg/kg, 1 h avant le pentobarbital injecté par voie intrapéritonéale à raison de 20 mg/kg.
On détermine le pourcentage des animaux ayant perdu le réflexe de retournement. Les résultats sont exprimés en pourcentage ou, dans quelques cas, en dose efficace 50 (DE 50) ou dose provoquant la narcose chez 50 % des animaux traités.
Les résultats figurent dans le tableau VI ci-après.

souris [3] = experiment: Actography (locomotor activity, two perpendicular light beams); format: in vivo; settings: mouse, 500 mg/kg oral; grouping in words
Experimental: La mesure de l'actographie est effectuée chez la souris 45 min. après l'administration du produit. On opère sur des lots de 12 animaux, chacun d'eux étant isolé pendant 10 min. avant la mesure. Le comptage des scores est effectué par coupure de deux faisceaux lumineux perpendiculaires.
Dans le tableau IV ci-après sont rassemblés les résultats obtenus avec divers produits de l'invention administrés à la dose de 500 mg/kg par voie orale. Les résultats sont exprimés en pourcentage de variation des scores obtenus par rapport à des animaux témoins non traités.
On peut constater que les produits se répartissent en deux groupes : • ceux provoquant de l'hypomotilité tels que 40217, 40039, 40271, 40272, 40319; dans le cas où les animaux traités présentent une perte du réflexe de retournement, ce qui traduit l'effet de narcose propre du produit, on a noté PRR; • ceux provoquant de l'hypermotilité, tels que 40142, 40398, 40397, 40404, 40253, 40355, 40209; pour préciser les résultats obtenus, l'étude pour deux produits a été reprise en effet-dose suivant le même protocole. • Les résultats obtenus figurent dans le tableau V ci-après.

souris [4] = experiment: Anticonvulsant effect against bicuculline-induced tonic seizures; format: in vivo; settings: 1 h; mouse, bicuculline 1 mg/kg i.v. 60 min after oral dosing; read-out: Dose efficace médiane de protection des crises toniques (DE 50) Bicuculline
Experimental: (§1) L'effet anticonvulsivant a été déterminé vis-à-vis des crises convulsives provoquées par l'électrochoc ou par la bicuculline.
La bicuculline est administrée à la souris par voie intraveineuse à raison de 1 mg/kg, 60 min après le produit à étudier donné per os. On note l'effet protecteur obtenu vis-à-vis des crises toniques.
(§2) En opérant sur divers lots d'animaux avec des doses différentes du produit à étudier, on peut déterminer la dose efficace médiane (DE 50).
(§3) Les résultats sont rassemblés dans le tableau VIII ci-après et montrent les propriétés anticonvulsivan- tes nettes des produits étudiés.

[5] = system: acide homovanillique (HVA); experiment: Effect on central dopaminergic activity (homovanillic acid accumulation in whole brain); format: in vivo, souris; settings: mouse whole brain, 500 mg/kg p.os
Experimental: L'effet des produits sur l'activité dopaminergique centrale a été étudié par la mesure de l'accumulation de l'acide homovanillique sur une période de 24 h après l'administration des produits chez la souris.
Le taux d'acide homovanillique (HVA) est évalué dans le cerveau entier, les animaux reçoivent une injection de probenecid (200 mg/kg i.p.) 1 h 30 min avant le sacrifice (lot de 10 animaux).

souris [6] = experiment: Anticonvulsant effect against electroshock seizures; format: in vivo; settings: 1 h; mouse, electroshock 12.5 V for 0.5 s, 60 min after oral dosing; read-out: Dose efficace médiane de protection des crises toniques (DE 50) Electrochoc
Experimental: as §1
L'électrochoc (12,5 V pendant 0,5 s) est effectué chez la souris 60 min après l'administration du produit par voie orale.
as §2, §3

[7] = 500 mg/kg p. os, read-out: p. cent de mortalité à 500 mg/kg p. os
[8] = 1000 mg/kg p. os, read-out: p. cent de mortalité à 1000 mg/kg p. os

SMILES: CCCCNC(=O)C(C)CCNC(=O)CCC (stereo not drawn) [40 404]
- mortality at 24 h [1, 7]: 0%
- mortality at 24 h [1, 8]: 0%
- Pourcentage d'animaux en narcose à 500 mg/kg p. os (souris [2]): 40%
- hypomotilité / hypermotilité (souris [3]): hypermotilité

SMILES: CCCCNC(=O)CCCNC(=O)CCC [40 142]
- mortality at 24 h [1, 7]: 0%
- mortality at 24 h [1, 8]: 0%
- ED50 (souris [4]): 325 mg/kg
- Taux de HVA en ([5]; 2 h): 379 ± 11 ng/g
- Taux de HVA en ([5]; 4 h): 793 ± 52 ng/g
- Taux de HVA en ([5]; 6 h): 571 ± 23 ng/g
- Taux de HVA en ([5]; 24 h): 290 ± 16 ng/g
- Taux de HVA en ([5]; time 0 (baseline)): 521 ± 29 ng/g
- ED50 (souris [2]): 297 mg/kg
- ED50 (souris [6]): 150 mg/kg
- hypomotilité / hypermotilité (souris [3]): hypermotilité

SMILES: CCCNC(=O)CCCNC(=O)CC(C)C [40 418]
- mortality at 24 h [1, 7]: 0%
- mortality at 24 h [1, 8]: 0%
- ED50 (souris [4]): 300 mg/kg

SMILES: CCCC(=O)NCCCC(=O)N1CCOCC1 [40 206]
- mortality at 24 h [1, 7]: 0%
- mortality at 24 h [1, 8]: 0%
- Pourcentage d'animaux en narcose à 500 mg/kg p. os (souris [2]): 0%

SMILES: CCCCNC(=O)CCNC(=O)C(C)(C)C [40 318]
- Pourcentage d'animaux en narcose à 500 mg/kg p. os (souris [2]): 90%

SMILES: CCCC(=O)NCCCC(=O)NC(C)C [40 466]
- mortality at 24 h [1, 7]: 0%
- mortality at 24 h [1, 8]: 0%
- Pourcentage d'animaux en narcose à 500 mg/kg p. os (souris [2]): 30%

SMILES: CCCCN(CCCC)C(=O)CCNC(=O)CCC [40 271]
- mortality at 24 h [1, 7]: 0%
- mortality at 24 h [1, 8]: 100%
- ED50 (souris [4]): < 500 mg/kg
- Pourcentage d'animaux en narcose à 500 mg/kg p. os (souris [2]): 100%
- ED50 (souris [6]): 500 mg/kg
- hypomotilité / hypermotilité (souris [3]): hypomotilité

SMILES: CCCC(=O)NCCCC(=O)NCC [40 463]
- mortality at 24 h [1, 7]: 0%
- mortality at 24 h [1, 8]: 0%
- ED50 (souris [4]): 380 mg/kg

SMILES: CCCCN(CCCC)C(=O)CCCNC(=O)C(C)C [40 462]
- mortality at 24 h [1, 7]: 0%
- mortality at 24 h [1, 8]: 0%
- ED50 (souris [4]): 150 mg/kg
- Pourcentage d'animaux en narcose à 500 mg/kg p. os (souris [2]): 30%
- ED50 (souris [6]): 500 mg/kg

SMILES: CCCCCN(CCCCC)C(=O)CCCNC(=O)CCC [40 984]
- mortality at 24 h [1, 7]: 0%
- mortality at 24 h [1, 8]: 100%
- Pourcentage d'animaux en narcose à 500 mg/kg p. os (souris [2]): 60%

SMILES: CCCCCCNC(=O)CCCNC(=O)CCC [40 947]
- mortality at 24 h [1, 7]: 0%
- mortality at 24 h [1, 8]: 0%
- ED50 (souris [4]): 250 mg/kg
- ED50 (souris [6]): 400 mg/kg

SMILES: CCCC(=O)NCCCC(=O)N(C(C)CC)C(C)CC (stereo not drawn) [40 216]
- mortality at 24 h [1, 7]: 0%
- mortality at 24 h [1, 8]: 100%
- Pourcentage d'animaux en narcose à 500 mg/kg p. os (souris [2]): 100%

SMILES: CCCC(=O)NCCCC(=O)NC(C)(C)CC [40 989]
- mortality at 24 h [1, 7]: 0%
- mortality at 24 h [1, 8]: 80%
- Pourcentage d'animaux en narcose à 500 mg/kg p. os (souris [2]): 50%

SMILES: CCCC(=O)NCCCC(=O)N(CCC)CCC [40 217]
- mortality at 24 h [1, 7]: 0%
- mortality at 24 h [1, 8]: 0%
- Pourcentage d'animaux en narcose à 500 mg/kg p. os (souris [2]): 0%
- hypomotilité / hypermotilité (souris [3]): hypomotilité

SMILES: CCCC(=O)NCCCC(=O)NC1CCCC1 [40 209]
- mortality at 24 h [1, 7]: 0%
- mortality at 24 h [1, 8]: 20%
- hypomotilité / hypermotilité (souris [3]): hypermotilité

SMILES: CCCCNC(=O)CCCNC(=O)CC(C)C [40 417]
- mortality at 24 h [1, 7]: 0%
- mortality at 24 h [1, 8]: 20%

SMILES: CCCNC(=O)CCCNC(=O)CCC [40 398]
- mortality at 24 h [1, 7]: 0%
- mortality at 24 h [1, 8]: 0%
- ED50 (souris [2]): 350 mg/kg
- hypomotilité / hypermotilité (souris [3]): hypermotilité

SMILES: CCCCNC(=O)CCCNC(=O)C(C)(C)C [40 254]
- mortality at 24 h [1, 7]: 0%
- mortality at 24 h [1, 8]: 20%
- ED50 (souris [4]): < 500 mg/kg
- Pourcentage d'animaux en narcose à 500 mg/kg p. os (souris [2]): 50%

SMILES: CCCCNC(=O)CCNC(=O)CCC [40 253]
- mortality at 24 h [1, 7]: 0%
- mortality at 24 h [1, 8]: 0%
- ED50 (souris [4]): < 500 mg/kg
- Pourcentage d'animaux en narcose à 500 mg/kg p. os (souris [2]): 50%
- ED50 (souris [6]): 500 mg/kg
- hypomotilité / hypermotilité (souris [3]): hypermotilité

SMILES: CCCC(=O)NCCCC(=O)NCc1ccccc1 [40 316]
- mortality at 24 h [1, 7]: 0%
- mortality at 24 h [1, 8]: 0%
- Pourcentage d'animaux en narcose à 500 mg/kg p. os (souris [2]): 70%

SMILES: CCCC(=O)NCCCC(N)=O [40 401, Dioxo-2,7 diaza-1,6 décane]
- mortality at 24 h [1, 7]: 0%
- mortality at 24 h [1, 8]: 0%
- Pourcentage d'animaux en narcose à 500 mg/kg p. os (souris [2]): 0%

SMILES: CCCCNC(=O)CCC(C)NC(=O)CCC (stereo not drawn) [40 397]
- mortality at 24 h [1, 7]: 0%
- mortality at 24 h [1, 8]: 20%
- Pourcentage d'animaux en narcose à 500 mg/kg p. os (souris [2]): 100%
- hypomotilité / hypermotilité (souris [3]): hypermotilité

SMILES: CCCCCNC(=O)CCCNC(=O)CCC [40 521]
- ED50 (souris [4]): 250 mg/kg
- ED50 (souris [6]): 180 mg/kg

SMILES: CCCCNC(=O)CCCNC(=O)C(C)C [40 467]
- mortality at 24 h [1, 7]: 0%
- mortality at 24 h [1, 8]: 0%
- ED50 (souris [4]): 150 mg/kg
- ED50 (souris [6]): < 500 mg/kg

SMILES: CCCCNC(=O)CCCNC(=O)C1CC1 [40 443]
- mortality at 24 h [1, 7]: 0%
- mortality at 24 h [1, 8]: 0%
- Pourcentage d'animaux en narcose à 500 mg/kg p. os (souris [2]): 40%

SMILES: CCCCNC(=O)CC(C)NC(=O)CCC (stereo not drawn) [40 395]
- mortality at 24 h [1, 7]: 0%
- mortality at 24 h [1, 8]: 20%
- Pourcentage d'animaux en narcose à 500 mg/kg p. os (souris [2]): 70%

SMILES: CCCCN(CCCC)C(=O)CCCNC(=O)C(C)(C)C [40 272]
- mortality at 24 h [1, 7]: 0%
- mortality at 24 h [1, 8]: 0%
- Pourcentage d'animaux en narcose à 500 mg/kg p. os (souris [2]): 72%
- hypomotilité / hypermotilité (souris [3]): hypomotilité

SMILES: CCCCN(CCCC)C(=O)CCNC(=O)C(C)(C)C [40 319]
- mortality at 24 h [1, 7]: 0%
- mortality at 24 h [1, 8]: 0%
- ED50 (souris [2]): 175 mg/kg
- hypomotilité / hypermotilité (souris [3]): hypomotilité
